For ten compounds, TGI and GI50 results are on record in PubChem BioAssay (NCI).

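In this assay, cells in 96-well plates receive the compound at five concentrations for 48 hours. Endpoints are linearly interpolated between the surrounding concentrations. GI50: concentration for 50% inhibition of growth. The concentration for full growth arrest is given as TGI.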

Common to all, as to experiment: NCI anticancer screen, dose series, 48 h
For assay [1], the system named is 786-0 renal.
In assay [2] the test system is BT-549 breast.
Assay [3] has as its system DU-145 prostate.
Assay [4] relates to EKVX NSCLC.
For assay [5], the system named is HCC-2998 colon.
The subject of assay [6] is HL-60(TB) leukemia.
Assay [7] relates to IGROV1 ovarian.
In assay [8] the test system is M14 melanoma.
Assay [9] deals with MCF7 breast.
In assay [10] the test system is MDA-MB-231 breast.
Assay [11] has as its system MDA-MB-435.
Assay [12] deals with PC-3 prostate.
The test system of assay [13] is RXF 393 renal.
Assay [14] deals with SR leukemia.
Assay [15] relates to T-47D breast.
Assay [16] has as its system TK-10 renal.
Assay [17] has as its system CCRF-CEM leukemia.
The subject of assay [18] is HS 578T breast.
Assay [19] deals with SK-MEL-5 melanoma.

For `COc1ccc(C(=O)c2[nH]c(Nc3cc(C)ccn3)c(C(=S)Nc3ccccc3)c2N)cc1`, the TGI was 49.7 µM in assay [1]; 42.5 µM in assay [2]; over 100 µM in [3]; over 100 µM in assay [4]; 37.4 µM in assay [5]; 64 µM in assay [6]. In addition, the TGI in assay [7] is 42 µM; in assay [8], 42.5 µM; in assay [9] it was 75.2 µM; in assay [10], 44.5 µM; in [11], 59.6 µM; in assay [12], over 100 µM. The TGI in assay [13] was 38.4 µM; in assay [14], over 100 µM; in assay [15], over 100 µM; in assay [16] it was 61.5 µM.

For `Nc1nc(N)c2ncn(Cc3ccccc3CO)c2n1`, the TGI in [1], in [2], in assay [17], in [3], in assay [4] and in assay [6] was over 100 µM each time. Moreover, the TGI in assay [18], in assay [7], in assay [8], in assay [9], in [10] and in assay [11] was over 100 µM each time. The TGI in assay [12], in [19], in assay [14], in assay [15] and in [16] was over 100 µM in each case.

As to `COc1cc2c(/C=C3/C(=O)Nc4cc(C)c(O)cc43)c(Cl)[nH]c2cc1C`, the TGI came out at 8.91 µM in assay [1]; 45.3 µM in [2]; 2.02 µM in [17]; 10.5 µM in assay [3]; 7.35 µM in assay [18]; 18.8 µM in [7]. For the same compound, the TGI in [8] was 5.89 µM; in assay [9], 13.4 µM; in assay [10], 8.99 µM; in assay [11], 1.22 µM; in assay [12], 21.9 µM; in [13] it was 7.1 µM. Further, the TGI stood at 12.5 µM in assay [19], 2.05 µM in [14], 18.2 µM in assay [15] and 7.22 µM in [16].

Consider `COc1ccc(C)cc1NC(=S)N/N=C/c1ccco1`, for which the TGI in [1] was over 100 µM; in assay [2] it was over 100 µM; in assay [17] it was over 100 µM; in assay [3] it was over 100 µM; in assay [4], 64.3 µM; in [5], over 100 µM. Moreover, the TGI was 86.2 µM in assay [6]; over 100 µM in [18]; over 100 µM in [7]; over 100 µM in assay [8]; over 100 µM in assay [9]; 92.2 µM in [11]. The TGI was over 100 µM in [12]; over 100 µM in [13]; 32.9 µM in assay [19]; over 100 µM in assay [14]; over 100 µM in [15].

Regarding `Cc1c2cnccc2c(C)c2c1c1ccccc1n2CCCCCCCl`, the TGI in [17] is over 50 µM; in [4], over 50 µM; in assay [5] it was over 50 µM; in assay [6], 40.6 µM; in assay [7], over 50 µM; in assay [9], over 50 µM. Moreover, the TGI in assay [13] and in assay [19] was over 50 µM throughout.

Turning to `Nc1nc2cc(COc3ccc(C(=O)O)cc3)ccc2nc1-c1ccccc1`, the TGI in assay [17], in assay [3], in assay [4], in [5], in assay [6] and in [18] was over 10 µM throughout. The TGI in assay [7], in assay [8], in assay [9], in assay [10], in assay [11] and in [12] was over 10 µM each time. In addition, the TGI in assay [13], in assay [19], in assay [14], in assay [15] and in assay [16] was over 10 µM each time.

As to `COc1cnc2oc3ccc(O)cc3c2c1-c1ccccc1`, the TGI in [1] was over 100 µM; in [2], over 100 µM; in [17], over 100 µM; in assay [3] it was over 100 µM; in assay [4], over 100 µM; in [5], 92.1 µM. The TGI was over 100 µM in assay [6]; over 100 µM in [18]; 39.8 µM in assay [8]; over 100 µM in assay [9]; over 100 µM in assay [11]; over 100 µM in [12]. Also, the TGI in assay [13], in assay [19], in assay [15] and in assay [16] was over 100 µM throughout.

As for `O=C(N/N=C/c1cc(Cl)cc(Cl)c1[O-])c1ccccc1O.O=C(N/N=C/c1cc(Cl)cc(Cl)c1[O-])c1ccccc1O.[Mn+2]`, the GI50 in assay [4] is 0.861 µM. For the same compound, the TGI turned out to be 11.2 µM in assay [4]; 13.5 µM in assay [5]; 0.404 µM in assay [6]; 2.51 µM in assay [8]; 5.7 µM in assay [13]; 2.63 µM in assay [19]. Besides, the TGI in assay [14] was found to be 0.832 µM; in assay [16] it was 16.2 µM.

Take `O=C(c1ccsc1)c1nccc2c1cnc1ccccc12`: the TGI in assay [1] is over 100 µM; in assay [2], over 100 µM; in assay [17], over 100 µM; in [3] it was over 100 µM; in [4], 88.4 µM; in [6], 6.65 µM. For the same compound, the TGI was 70.6 µM in [18]; 17.1 µM in [7]; over 100 µM in assay [8]; over 100 µM in assay [9]; over 100 µM in assay [10]; over 100 µM in [11]. The TGI in assay [12], in assay [13], in assay [19], in assay [15] and in assay [16] was over 100 µM in each case.

For the compound `O=C1Sc2sc(=S)sc2SC1c1ccccc1` (stereo unspecified), the TGI was 91.5 µM in [17]; over 100 µM in assay [4]; over 100 µM in assay [5]; over 31.6 µM in assay [6]; over 100 µM in assay [7]; over 100 µM in assay [9]. In addition, the TGI in assay [13] was 76.6 µM; in [19], over 100 µM.
